Test system: acid secretion stimulated by pentagastrin of the perfused rat stomach
Experiment: Secretion-inhibiting action on the perfused rat stomach (pentagastrin-stimulated acid secretion in vivo)
Settings: anesthetized female CD rats, pentagastrin 1 μg/kg i.v. stimulation, dose 1 μmol/kg i.d.
Description: Testing of the Secretion-Inhibiting Action on the Perfused Rat Stomach
In Table A below, the influence of the compounds according to the invention after […] administration is shown on the acid secretion stimulated by pentagastrin of the perfused rat stomach in vivo.
The abdomen of anesthetized rats (CD rats, female, 200-250 g; 1.5 g/kg i.m. urethane) was opened after tracheotomy by means of a median upper abdominal incision and a PVC catheter was fixed transorally in the esophagus and a further catheter via the pylonus such that the ends of the tubing just projected into the gastric lumen. The catheter leading from the pylorus led outwards through a side opening in the right abdominal wall.
After thorough rinsing (about 50-100 ml), warm physiological NaCl solution at 37° C. was continuously passed through the stomach (0.5 ml/min, pH 6.8-6.9; Braun-Unita I). The pH (pH meter 632, glass electrode EA 147; φ=5 mm, Metrohm), and, by titration with a freshly prepared 0.01N NaOH solution to pH 7 (Dosimat 665 Metrohm), the secreted HCl were determined in the effluent in each case collected at an interval of 15 minutes.
The gastric secretion was stimulated by continuous perfusion of 1 μg/kg (=1.65 ml/h) of i.v. pentagastrin (left femoral vein) about 30 min after the end of the operation (i.e. after determination of 2 preliminary fractions). The substances to be tested were administered Intraduodenally in 2,5 ml/kg of liquid volume 60 min after the start of the pentagastrin continuous infusion.
The body temperature of the animals was kept at a constant 37.8-38° C. by infrared irradiation and heat pads (automatic, stepless control by means of rectal temperature sensors).

Structure (SMILES)	Inhibition of acid secretion [%]
COCCO[C@@H]1c2ccn3c(C)c(C)nc3c2N[C@H](c2ccccc2)[C@H]1OC(=O)CCCCO[N+](=O)[O-] [Example 1]	100
COCCO[C@@H]1c2ccn3c(C)c(C)nc3c2N[C@H](c2ccccc2)[C@H]1OC(=O)CCCO[N+](=O)[O-] [Example 2]	100
COCCO[C@@H]1c2ccn3c(C)c(C)nc3c2O[C@H](c2ccccc2)[C@@H]1OC(=O)CCCCO[N+](=O)[O-] [Example 3, (7R,8R,9R)-2,3-Dimethyl-7-(2-methoxyethoxy)-9-phenyl-8-(5-nitro-oxy-valeryloxy)-7H-8,9-dihydro-pyrano[2,3-c]imdazo[1,2-a]pyridine]	100
CCC(CCCOC(=O)O[C@@H]1[C@@H](c2ccccc2)Nc2c(ccn3c(C)c(C)nc23)[C@H]1OCCOC)O[N+](=O)[O-] (stereo partly shown) [Example 4]	100
